Results: patent publication US9062088B2, “CDK-inhibiting pyrrolopyrimidine carboxamide derivative or pharmaceutically acceptable salt thereof, and pharmaceutical composition containing the same as active ingredient for preventing or treating hepatocellular carcinoma” (SNU R&DB Foundation, priority 2010, dated 2015)

Assays:
Type in all cases: cell-based, human
p-Rb (Cdk2) = test: Western blotting of p-Rb (Cdk2) in SNU-354 cells
Protocol: SNU-354 cells were cultured in RPMI 1640 (Invitrogen, CA, USA) supplemented with 10% FBS (Invitrogen) and antibiotics/antimycotics (Invitrogen) in a 5% CO2 incubator at 37° C. […]
(§1) After treating the compound of Example 2 to SNU-354 cells, cell pellet was lysed with lysis buffer (0.5% triton X-100, 20 mM Tris-HCl (pH 7.5), 2 mM magnesium chloride, 1 mM DTT, 1 mM EGTA, 50 mM β-glycerophosphate, 25 mM sodium fluoride, 1 mM Na3VO4, 2 μg/mL leupeptin, 2 μg/mL pepstatin A, 100 μg/mL phenylmethylsulfonyl fluoride, and 1 μg/mL antipain) at 4° C. for 1 hour, followed by quantification of protein. A proper amount of protein was electrophoresed on SDS-PAGE gel and then transferred onto polyvinylidene difluoride membrane (Millipore Co., Bedford, Mass.). The membrane was reacted in inhibiting solution (PBS, 5% skim milk, 0.1% tween-20) at room temperature for 1˜2 hours. The membrane was reacted with the primary antibody (goat anti-phospho-Rb, rabbit anti-nucleolin) diluted in the inhibiting solution (1:1000). Then, the membrane was washed with PBST, followed by reaction with the proper secondary antibody (horseradish peroxidase (HRP) conjugated) at room temperature for 1 hour.

Mcl-1, survivin, XIAP = test: Western blotting of Mcl-1, survivin, XIAP proteins in SNU-354 cells; conditions: FIG. 13
Protocol: as §1
Experiment was performed by the same manner as described in step 2 of Experimental Example 1 except that rabbit anti-Mcl-1 (from Santa Cruz Biochemicals, CA, USA), rabbit anti-survivin, rabbit anti-XIAP (from Cell Signaling, MA, USA), and rabbit anti-Actin (from Sigma, USA) were used as primary antibodies.

[1] = system: Mcl-1, survivin, XIAP mRNA; test: RT-PCR of Mcl-1, survivin, XIAP mRNA in SNU-354 cells; conditions: FIG. 14
Protocol: Total RNA was extracted from SNU-354 cells treated with the compound of Example 2 according to the conventional method. For reverse transcription, 5 μg of the extracted RNA and M-MLV reverse transcriptase (Promega Corporation, WI, USA) were used. Reverse Transcription was induced at 37° C. for 1 hour, followed by further reaction at 95° C. for 5 minutes. For PCR, 5 μl of cDNA obtained from the reverse transcription was used as a template and Taq DNA polymerase was used. Total reaction volume was 50 μl. PCR was performed as follows; predenaturation at 95° C. for 5 minutes, denaturation at 95° C. for 1 minute, annealing at 56° C. for 1 minute, polymerization at 72° C. for 1 minute, 30 cycles from denaturation to polymerization, and final extension at 72° C. for 10 minutes. After PCR, the PCR products were analyzed by electrophoresis on 1% agarose gel. The forward primer for Mcl-1 was 5′-CGGTAATCGGACTCAACCTC-3′ (SEQ ID NO: 1) and the reverse primer was 5′-CCT CCT TCT CCG TAG CCA A-3′ (SEQ ID NO: 2). The forward primer for XIAP was 5′-AGTGGTAGTCCTGTTTCAGCATCA-3′ (SEQ ID NO: 3) and the reverse primer was 5′-CCG CAC GGT ATC TCC TTC A-3′ (SEQ ID NO: 4). The forward primer for survivin was 5′-TGC CTG GCA GCC CTT TC-3′ (SEQ ID NO: 5) and the reverse primer was 5′-CCTCCAAGAAGGGCCAGTTC-3′ (SEQ ID NO. 6). […]

CC(C)C(=O)OC[C@@H]1O[C@H](n2cnc(N)c3c(C(N)=O)c(Br)nc2-3)[C@H](O)[C@H]1O [Example 2, ((2S,3R,4R,5S)-5-(4-amino-6-bromo-5-carbamoyl-1H-pyrrolo[2,3-d]pyrimidin-1-yl)-3,4-dihydroxy-tetrahydrofuran-2-yl)methyl isobutyrate]
Phosphorylation (%) p-Rb(Cdk2) (p-Rb (Cdk2); treatment time 6 (hours)): 3.6% | Phosphorylation (%) p-Rb(Cdk2) (p-Rb (Cdk2); treatment time 12 (hours)): 2.7% | Phosphorylation (%) p-Rb(Cdk2) (p-Rb (Cdk2); treatment time 18 (hours)): 0.6% | Phosphorylation (%) p-Rb(Cdk2) (p-Rb (Cdk2); treatment time 24 (hours)): 0.3% | Mcl-1, Survivin and XIAP protein level (Mcl-1, survivin, XIAP): down-regulated | Mcl-1, survivin and XIAP mRNA [1]: decrease of mRNA
